{"source": "patent US20050203013A1", "about": "“Methods for inhibiting vascular permeability” (priority 2002, published 2005)", "key": {"[1]": {"assay": "Water solubility", "type": "physicochemical", "procedure": "To evaluate the biological activity of HPMA-TNP-470, the following assays were performed: […]"}, "[2]": {"tested_on": "ear swelling", "assay": "Delayed-type hypersensitivity reaction elicited by oxazolone", "type": "in vivo, C57B1/6J mice", "procedure": "Delayed-type hypersensitivity (DTH) reactions were induced in the skin of 8-week-old C57B1/6J male mice (n=5) as previously described (Dvorak et al., 1984). In order to induce an immune response to oxazolone, mice were first sensitized by topical application of 2% oxazolone solution in vehicle, acetone: olive oil (4:1 vol/vol), to the shaved abdomen (50 μl) and to each paw (5 μl). Mice were treated with TNP-470 (30 mg/kg s.c.) for three days prior to the second challenge with oxazolone. Five days after sensitization, the right ears were challenged by topical application of 10 μl of a 1% oxazolone solution; the left ears were treated with vehicle alone. Ear thickness was then measured daily for up to 7 days as a measure of inflammation intensity (Gad et al., 1986). Statistical analysis was performed using the unpaired Student t test. Some mice from each experimental group were euthanized 24 hours after oxazolone challenge (n=5 per group). One half of each ear was fixed in 10% formalin and was processed, embedded in paraffin and stained for H & E. The other half was embedded in OCT compound (Sakura Finetek, Torrance, Calif.) and snap-frozen in liquid nitrogen. Immunohistochemical staining was performed on 5 μm cryostat sections using a Vecstatin avidin-biotin detection system (Vector Labs, Burlingame, Calif.) with rat monoclonal antibodies against mouse CD31 (dilution 1:250, Pharmingen, San Diego, Calif.) according to the manufacturers' instructions."}, "[3]": {"tested_on": "RhoA", "assay": "RhoA activation assay", "type": "cell-based, Human", "conditions": "HMVEC-d", "procedure": "• pGST-TRBD bacteria were grown and induced with isopropyl-thiogalactoside. The bacterial suspensions were divided into 50 ml aliquots and then harvested and frozen at −80° C. To prepare the GST-TRBD beads, each aliquot of frozen bacteria was resuspended in 2 ml of cold PBS, and then 20 μl of 1 M dithiothreitol (DTT), 20 μl of 0.2 M PMSF, and 40 μl of 50 mg/ml lysozyme were added. The sample was incubated on ice for 30 minutes. Next, 225 μL of 10% Triton X-100, 22.5 μL of IM MgCl2, 22.5 μl of 2000 KU/ml DNAse were added and the sample was incubated on ice for another 30 min. The supernatant was collected and incubated with 100 μl glutathione-coupled Sepharose 4B beads (Pharmacia Biotech) at 4° C. for 45 minutes. The beads were then washed with bead washing buffer (PBS with 10 mM DTT and 1% Triton X-100) and resuspended in the same buffer to give a 50% bead slurry.\nMeanwhile, 24 hours serum-starved HMVEC-d cells were treated with 5 ng/ml TNP-470 at 37° C. for 2 hours, and then stimulated with 10 ng/ml of VEGF, PAF (10 nM), or histamine ([…]) for 5 minutes. Stimulation was stopped by adding cold PBS. Cells were lysed with lysis buffer (150 mM NaCl, 0.8 mM MgCl2, 5 mM EGTA, 1% IGEPAL, 50 mM HEPES, pH 7.5, 1 mM PMSF, 10 μg/ml leupeptin, and 10 μg/ml aprotinin). The supernatant was isolated and incubated with 50 μl of GST-TRBD beads at 4° C. for 45 minutes. Protein bound to beads was washed with AP wash buffer (50 mM Tris-HCl, pH 7.2, 1% Triton X-100, 150 mM NaCl, 10 mM MgCl2, 1 mM PMSF, 10 μg/ml leupeptin, and 10 μg/ml aprotinin) and analyzed by SDS-PAGE with an antibody against RhoA (Santa Cruz Biotechnology, CA)."}, "[4]": {"tested_on": "Ca2+ influx in HMVEC-d", "assay": "Intracellular Ca2+ release", "type": "cell-based, Human", "procedure": "For detaching cells, serum-starved HMVEC-d were incubated with 4 ml of collagenase solution (0.2 mg/ml collagenase, 0.2 mg/ml soybean trypsin inhibitor, 1 mg/ml BSA, and 2 mM EDTA in PBS) at 37° C. for 30 minutes. Cell pellets were washed with 2 ml of Ca^2+ buffer (5 mM KCl, 140 mM NaCl, 1 mM CaCl2, 1 mM MgCl2, 5.6 mM glucose, 0.1% BSA, 0.25 mM sulfinpyrazone, and 10 mM HEPEs, pH 7.5) and then resuspended in 2 ml of the same buffer containing 5 ng/ml TNP-470. The cells were incubated at 37° C. for 2 hours in suspension. During the last 30 minutes of incubation, 1 μg/ml Fura-2-AM Fura 2-AM (acetoxymethyl ester derivative of Fura 2) and 0.02% pluronic F-127 were added to the suspension. Cells (106) were collected and resuspended in 2 ml Ca^2+ buffer for VPF/VEGF (10 ng/ml), PAF (20 nM), or histamine ([…]) stimulation. Intracellular Ca^2+ concentrations were measured with the DeltaScan Illumination System (Photon Technology International Inc.) using Felix software, while rocking the tubes."}, "[5]": {"tested_on": "HMVEC-d cells", "assay": "Cell migration assay (modified Boyden chamber)", "type": "cell-based, Human", "procedure": "The motility response of HMVEC-d cells was assayed using a modified Boyden chamber. Cells were plated in T75-cm^2 flasks at 0.5×10^6 cells per flask and allowed to grow for 48 hours (˜70% confluent) prior to the migration assay. To facilitate cell adhesion, the upper membrane of a transwell (8 μm pore; Costar) was coated with fibronectin (10 μg/ml; Becton Dickinson) overnight at 4° C. Coated membranes were rinsed with PBS and allowed to air dry immediately before use. Cells were detached by trypsinization, treated with trypsinization neutralization solution (Clonetics), and resuspended at a final concentration of […] in serum-free EBM-2 containing 0.1% BSA or free or conjugated TNP470 at equivalent concentrations of 1 ng/ml. Cells (50,000 in 100 μl) were added to the upper chamber of the transwell. Following a 2 hours incubation, EBM-2 or EBM-2 supplemented with VPF/VEGF (5 ng/ml) was added to the lower chamber and cells were allowed to migrate toward the bottom chamber for 4 hours in a humidified incubator containing 5% CO2. […] The number of migrated cells was measured using microscopy (three fields from each membrane were captured using a 10× objective), and images were captured with a CCD camera using SPOT software. Total migration per membrane was quantified from the captured images using Scion Image software (National Institutes of Health). […]"}}}
{"smiles": "CO[C@@H]1[C@H](OC(=O)NC(=O)CCl)CC[C@]2(CO2)[C@H]1[C@@]1(C)O[C@@H]1CC=C(C)C", "note": "[TNP-470]", "values": [{"measurement": "water solubility", "setting": "[1]", "value": "not water-soluble"}, {"measurement": "inflammatory response (histology)", "setting": "[2]; 24 hours after challenge", "value": "dramatically reduced"}, {"measurement": "ear swelling and erythema vs control mice", "setting": "[2]; 24 hours after oxazolone challenge, P<0.01", "value": "significantly reduced ear swelling and erythema"}, {"measurement": "difference in ear swelling vs control mice", "setting": "[2]; 48 hours, P<0.01", "value": "persisted"}, {"measurement": "difference in ear swelling vs control mice", "setting": "[2]; 4 days", "value": "differences had disappeared"}, {"measurement": "PAF-induced RhoA activation", "setting": "[3]", "value": "inhibited"}, {"measurement": "VPF/VEGF-induced RhoA activation", "setting": "[3]", "value": "significantly suppressed"}, {"measurement": "histamine-induced RhoA activation", "setting": "[3]", "value": "inhibited"}, {"measurement": "Ca2+ influx induced by PAF", "setting": "[4]", "value": "decreased"}, {"measurement": "Ca2+ influx induced by VPF/VEGF", "setting": "[4]", "value": "decreased"}, {"measurement": "Ca2+ influx induced by histamine", "setting": "[4]", "value": "decreased"}, {"measurement": "inhibition at 0.001 µg/mL", "setting": "[5]; Homo sapiens, 1 ng/ml, 2 hours pretreatment, 4 hours migration, read-out: inhibition of chemotactic migration response to VPF/VEGF", "value": 68, "unit": "%"}, {"measurement": "inhibition of basal migration", "setting": "[5]; absence of VPF/VEGF", "value": 70, "unit": "%"}]}
